Laboratory results reported in US12133842B2, “Stable preservative-free mydriatic and anti-inflammatory solutions for injection” (RAYNE INTRAOCULAR LENSES LIMITED, priority 2012, dated 2024).
Entries after “also recorded” stand apart in the source; their conditions may differ. Structures can show the parent of a compound that is named as a salt.

Key:
[1] = test system: African green monkey model of human phacoemulsification surgery; test: Concentration-ranging study of phenylephrine and ketorolac, intraoperative irrigation, phacoemulsification surgical model, Example 6; type: in vivo
Method: (§1) In each case an aliquot of the formulation was injected into a balanced salt solution (BSS, Baxter Healthcare, produce code 1A7233) as the irrigation vehicle carrier to a particular final dosing concentration as described below. The studies also utilized Proparacaine HCl (0.5%, Bausch & Lomb), Tropicamide (1.0%, Bausch & Lomb) and Ciprofloxacin HCl (3%, Alcon) to the extent described below.
(§2) The mydriatic and anti-inflammatory properties of the test agents were evaluated in an African green monkey model of human phacoemulsification surgery. Prior to surgery, baseline measures and assessments were performed on both eyes in each monkey to determine pupil diameter, lens and iris integrity, corneal thickness, and anterior chamber flare and cell count by qualitative scoring under biomicroscopy and quantitative flare photometry using a Kowa FM-500 instrument. A phacoemulsification surgery with lens replacement with a polymethyl methacrylate (PMMA) artificial lens was performed using a Storz Premier anterior phacoemulsification machine. The procedure was only performed on the right eye to minimize surgery position variability, allow the left to serve as control, and to minimize the consequence of any possible vision loss induced.
Test animals were placed in a prone position under ketamine/xylazine anesthesia augmented with one drop of topical proparacaine. A small incision was made in the cornea of the right eye with a MVR 20 G lance blade, through which 0.4-0.6 mL of viscoelastic (2% hydroxypropyl methylcellulose, EyeCoat, Eyekon Medical) was introduced into the anterior chamber via a viscoelastic injector. A corneal incision was made 1.0 mm anterior to the limbus using a 2.65 mm straight clear cornea bi-beveled blade. Irrigation was applied with the phacoemulsification hand piece to remove viscoelastic and introduce the test perfusate. After irrigation for a total of four minutes, irrigation was stopped and the anterior chamber refilled with viscoelastic. A capsulorhexis was performed and the phacoemulsification tip reintroduced into the anterior chamber with the application of phacoemulsification energy to disrupt the lens and allow aspiration and lens fragment removal. Irrigation was extended for a period after lens removal to standardize intraocular perfusate delivery across all treatment groups (a total of 14 minutes during this phacoemulsification segment of the irrigation). Following the phacoemulsification and irrigation procedure, a PMMA intraocular lens (IOL) was inserted and an additional two minutes of irrigation perfumed, after which the corneal incision was closed with two 12.0 nylon sutures. Irrigation with a test fluid or vehicle control, as described below, was performed for a total of 20 minutes at a flow rate of 20 mL/min, prior to, during and after phacoemulsification and lens replacement.
(§3) In these studies, laser flare photometry was performed at baseline, 4.5, 24, 48 hours and 1 week after the initiation of the surgical procedure using a Kowa FM-500 (Kowa Company, Tokyo Japan). The Kowa FM-500 measures laser light scattering to quantify anterior chamber flare. A laser is directed into the anterior chamber and protein molecules, released into the anterior chamber during an inflammatory response, pass through the focal point scattering laser light. This light scattering is quantified by a photomultiplier tube as photon counts per millisecond. At each observation point, measurements were collected until seven acceptable readings (difference between two background measurements <15%) were obtained and the lowest and highest readings were deleted and the mean value+/−the standard deviation calculated, as specified by the manufacturer.
The time course of the mydriatic effect was documented through video recording of the pupil during the perfusion procedure. Pupil diameter and the fixed width of the lid speculum (11 mm) were measured from the screen image to allow calculation of the pupil diameter in millimeters.

[2] = test system: African green monkey model of human phacoemulsification surgery; test: Phenylephrine and ketorolac combination (90 μM PE, 30 μM KE) irrigation in phacoemulsification surgical model, Example 7; type: in vivo
Method: as §1
as §2, with “The procedure was only performed on the right eye to minimize surgery position variability, allow the left to serve as control, and to minimize the consequence of any possible vision loss induced.” left out
as §3, with “A laser is directed into the anterior chamber and protein molecules, released into the anterior chamber during an inflammatory response, pass through the focal point scattering laser light.” left out
The time course of the mydriatic effect was documented through video recording of the pupil during the perfusion procedure. Pupil diameter and the fixed width of the lid speculum (11 mm) were measured from the screen image to allow calculation of the pupil diameter in millimeters. […]

[3] = test system: African green monkeys undergoing phacoemulsification surgery with lens replacement; test: GLP toxicology (safety) study of PE-KE irrigation in phacoemulsification surgery, Example 9; type: in vivo, African green monkey; conditions: tropicamide control group; thirty seconds after intracameral 150 μl BSS alone
Method: as §1
The mydriatic and anti-inflammatory properties of the test agents were evaluated in an African green monkey model of human phacoemulsification surgery. Prior to surgery, baseline measures and assessments were performed on both eyes in each monkey to determine pupil diameter, lens and iris integrity, corneal thickness, and anterior chamber flare and cell count by qualitative scoring under biomicroscopy and quantitative flare photometry using a Kowa FM-500 instrument. […]
A nonclinical GLP toxicology study was carried out in African green monkeys. […] Three concentrations were evaluated: 720 μM PE and 90 μM KE (720:90 μM) in the low concentration group, 2160 μM PE and 270 μM KE (2160:270 μM) in the mid concentration group, and 7200 μM PE and 900 μM KE (7200:900 μM) in the high concentration group.
A separate control group was evaluated as well. […]

[4] = test system: subjects undergoing unilateral cataract extraction with lens replacement (CELR); test: Phase 2b human clinical study, irrigation during cataract extraction with lens replacement (CELR), Example 10; type: in vivo; conditions: for Subjects Having Pupil Diameter <6 mm during CELR (number of subjects) / Subjects Having Pupil Diameter <6 mm during CELR (percent): intent-to-treat, n = 49 combination, 52 KE, 49 PE
Method: A Phase 2b human clinical study evaluated a ketorolac and phenylephrine combination drug composition, formulated in accordance with Formula 1 of the present invention-, for its effect on the maintenance of intra-operative mydriasis (pupil dilation) and reduction of postoperative pain and irritation resulting from cataract and other lens replacement surgery. The combination drug composition was diluted into a balanced salt solution irrigation carrier prior to intraocular administration during intraocular surgical procedures.
The subject Phase 2b study was a randomized, parallel group, vehicle-controlled, factorial design study, and was run to compare phenylephrine (PE), ketorolac (KE) and the combination drug composition containing both PE and KE in subjects undergoing unilateral cataract extraction with lens replacement (CELR) using a coaxial phacoemulsification process with insertion of an acrylic lens. Administration of test irrigation solutions occurred in a double-masked fashion. The study evaluated, in a four-arm full-factorial design, the contribution of the two active pharmaceutical ingredients (PE and KE, alone and in combination) to the maintenance of mydriasis and post-operative reduction in pain when administered diluted in balanced salt solution (BSS). The study also explored the effect of the combination drug composition, PE, and KE on postoperative inflammation. Subjects were randomized to one of the following four treatment arms in a 1:1:1:1 fashion: • a. BSS vehicle • b. 483 μM PE in BSS • c. 89 μM KE in BSS • d. the combination drug composition containing 483 μM PE and 89 μM KE in BSS.
All subjects in this study received preoperative mydriatics and anesthetics. In each of the four groups, the respective irrigation treatment was administered as a single irrigation of the anterior chamber of the eye during the CELR surgical procedure, with a mean of 8 minutes of exposure in this study. In addition, at the end of the procedure, the anterior chamber was filled with the irrigation treatment. The change in pupil diameter over time from surgical baseline (immediately prior to surgical incision) to the end of the surgical procedure (wound closure) was measured, as was postoperative pain on the day of operation as measured by the Visual Analog Scale (VAS) at 2, 4 6, 8 and 10-12 hours and at other times recorded by the patient prior to taking rescue pain medication.

[5] = cited from earlier work

tropicamide
maximal pupil dilation relative to phenylephrine groups ([1]; two drops 1% topical 20 minutes before BSS irrigation): lower maximal dilation than exhibited by the mid, high and highest concentration phenylephrine groups | mean pupil diameter ([2]; control arm of previous efficacy studies, preoperative topical 1% tropicamide): 5.9 mm | time at which pupil diameter plateaued ([2]; monkey, in vivo): approximately 2.5 minutes | maximal dilation relative to PE-KE group ([2]; topical tropicamide 20 minutes before BSS irrigation): lower maximal dilation than exhibited by the PE-KE treatment group | pupil diameter [3]: 5.18±0.18 mm

CNC[C@H](O)c1cccc(O)c1 [phenylephrine, (−)-m-Hydroxy-a-[(methylamino)methyl]benzyl alcohol hydrochloride]
pupil dilation after adding phenylephrine to ketorolac or BSS perfusate ([1]; 30 μM phenylephrine added at two minutes): rapid dilation occurred | maximal mydriasis attained, dependence on concentration ([1]; 3, 10, 30, 90 μM): concentration-dependent | flare measures relative to tropicamide control ([1]; all time points, Student Newman-Keuls, hydrochloride): no treatment effect on flare measures; also recorded: no significant difference between treatment groups | mean dilation (pupil diameter) at later time points ([1]; high phenylephrine group (30 μM), approaches anatomic limit): ~8.3 mm | concentration resulting in mydriasis exceeding preoperative topical 1% tropicamide ([1]; in BSS perfusate): ≥ 10 µM | mydriasis onset and maintenance (video pupil data) ([1]; phenylephrine 3-90 μM in BSS anterior chamber perfusate): rapid onset mydriasis which was maintained throughout the surgical procedure | flare photometry and pachymetry measures (anterior chamber inflammation, corneal edema) ([1]; phenylephrine added to perfusate): did not indicate a reduction in anterior chamber inflammation or corneal edema | Subjects Having Pupil Diameter <6 mm during CELR (number of subjects) [4]: 11 | Subjects Having Pupil Diameter <6 mm during CELR (percent) [4]: 22% | solubility ([5]; water and alcohol): freely soluble in water and alcohol

O=C(c1ccccc1)c1ccc2n1CCC2C(=O)O (racemic) [ketorolac, (+/−)-5-Benzoyl-2,3-dihydro-1H-pyrrolizine-1-carboxylic acid:2-amino-2(hydroxymethyl)-1,3-propanediol (1:1)]
flare measurements versus control at 24 and 48 hours ([1]; high and mid dose ketorolac, not statistically significant): remained lower relative to the control group | mydriasis relative to BSS alone ([1]; ketorolac 3-30 μM in BSS, initial two minutes before phenylephrine): No statistical differences; also recorded: did not result in a change in mydriasis substantially different from that observed with BSS alone | flare measures / anterior chamber inflammation versus BSS control at 4.5 hours ([1]; mid (10 μM) and high (30 μM) ketorolac groups combined, F=5.17, P<0.0223): statistically significant difference; also recorded: positive effect of ketorolac on anterior chamber inflammation | anti-miotic effect ([4]; 89 μM KE with 483 μM PE): provided an anti-miotic effect on top of the effect of phenylephrine | subjects with extreme constriction (pupil reduction of 2.5 mm or more) ([4]; 483 μM PE and/or 89 μM KE in BSS): 21% | Subjects Having Pupil Diameter <6 mm during CELR (number of subjects) [4]: 18 | Subjects Having Pupil Diameter <6 mm during CELR (percent) [4]: 35% | solubility of three crystal forms ([5]; water): equally soluble in water
